Experiment: physchem
Type: physicochemical
Protocol: Die Bestimmung der logP-Werte erfolgte gemäß EEC Directive 79/831 Annex V.A8 durch HPLC (High Performance Liquid Chromatography) an einer Phasenumkehrsäule (C18) mit Hilfe folgender Methoden: Der logP[a] Wert wird durch LC-UV Messung im sauren Bereich bestimmt, mit 0,9 mL/L Ameisensäure in Wasser und 1,0 mL/L Ameisensäure in Acetonitril als Eluenten (linearer Gradient von 10% Acetonitrile bis 95% Acetonitril).
Der logP[n] Wert wird durch LC-UV Messung im neutralen Bereich bestimmt, mit 79 mg/L Ammoniumcarbonat in Wasser und Acetonitril als Eluenten (linearer Gradient von 10% Acetonitril bis 95% Acetonitril).
Die Kalibrierung wurde mit einer homologen Reihe geradkettiger Alkan-2-one (mit 3 bis 16 Kohlenstoffatomen) mit bekannten logP Werten durchgeführt. Die Werte zwischen aufeinanderfolgender Alkanone werden durch lineare Regression bestimmt.

For `Cn1c(-c2ncccc2SC(F)(F)F)nc2cc(C(F)(F)F)ncc21` [Beispiel 1, 3-Methyl-6-(trifluormethyl)-2-{3-[(trifluormethyl)sulfanyl]pyridin-2-yl}-3H-imidazo [4,5-c] pyridin], which chromatographic logP (hplc c18, acidic formic acid) is on record?
Its chromatographic logP is 3.

What about the chromatographic logP (hplc c18, ammonium carbonate) of the same molecule?
The chromatographic logP was 2.97.

From patent EP3636645A1, “PROCESS FOR THE PREPARATION OF SULFUR-SUBSTITUTED PYRIDINE DERIVATIVES” (Bayer Aktiengesellschaft, priority 2018, dated 2020)
